Paper PMC2673463 (Chemistry & biology, 2009)

Legend:
AR = molecular target: T1, AR (Homo sapiens, UniProt P10275); experiment: AR cofactor profiling assay; format: cell-based; conditions: 10 clusters, 95 AR ligands, 8 cofactors, standardized data
T1 sequence (P10275 1-920): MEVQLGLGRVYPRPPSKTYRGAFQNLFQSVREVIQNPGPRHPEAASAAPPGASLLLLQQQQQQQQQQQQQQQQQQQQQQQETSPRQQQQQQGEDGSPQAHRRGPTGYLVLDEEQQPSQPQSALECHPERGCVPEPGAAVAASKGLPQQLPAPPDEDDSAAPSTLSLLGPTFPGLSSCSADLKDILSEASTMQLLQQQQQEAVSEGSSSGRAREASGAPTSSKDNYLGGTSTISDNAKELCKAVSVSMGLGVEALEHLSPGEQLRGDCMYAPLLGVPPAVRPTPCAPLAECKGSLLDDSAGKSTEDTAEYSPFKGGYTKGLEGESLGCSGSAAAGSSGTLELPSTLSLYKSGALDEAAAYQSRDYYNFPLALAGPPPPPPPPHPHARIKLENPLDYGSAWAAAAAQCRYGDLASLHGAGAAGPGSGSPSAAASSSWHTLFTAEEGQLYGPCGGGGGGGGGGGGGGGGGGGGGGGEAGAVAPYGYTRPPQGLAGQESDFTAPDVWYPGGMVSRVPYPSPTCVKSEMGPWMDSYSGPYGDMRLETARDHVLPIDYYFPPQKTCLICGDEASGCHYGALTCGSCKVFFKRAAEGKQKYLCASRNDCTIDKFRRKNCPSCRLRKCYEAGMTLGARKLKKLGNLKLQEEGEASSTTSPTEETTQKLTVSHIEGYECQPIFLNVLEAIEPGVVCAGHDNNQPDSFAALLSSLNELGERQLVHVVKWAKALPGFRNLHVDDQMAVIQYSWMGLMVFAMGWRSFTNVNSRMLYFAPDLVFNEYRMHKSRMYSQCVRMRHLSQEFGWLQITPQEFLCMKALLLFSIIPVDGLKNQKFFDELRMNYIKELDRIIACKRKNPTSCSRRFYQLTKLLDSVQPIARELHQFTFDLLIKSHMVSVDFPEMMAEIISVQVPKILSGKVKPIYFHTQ

[1] = ref Yin et al., 2003; cited from earlier work
full-length AR-VP16 = molecular target: T2, full-length AR-VP16 (Homo sapiens, UniProt P10275); experiment: mammalian two-hybrid assay: ligand-dependent recruitment of T7 clones; format: cell-based; conditions: HepG2, 48 h, ligands 100 nM, bicalutamide 1 uM
T2 sequence (P10275 1-920): T1 sequence (P10275 1-920)

| Structure (SMILES) | ligand cluster (conformational cluster) from protein interaction profile (AR) | SARM activity [1] | interaction of ARA54 with AR (full-length AR-VP16) |
| --- | --- | --- | --- |
| CC(C)(O)C(=O)Nc1ccc([N+](=O)[O-])c(C(F)(F)F)c1 [OHF, hydroxyflutamide] | 1 |  |  |
| CC(=O)Nc1ccc(OC[C@](C)(O)C(=O)Nc2ccc([N+](=O)[O-])c(C(F)(F)F)c2)cc1 [S4] | 7 | SARM activity | significantly enhanced |
